Test results from ChEMBL document CHEMBL5143762, “Novel Coronavirus Main Protease Di- and Tripeptide Inhibitors for Treating COVID-19” (ACS Med Chem Lett, 2022).

Target: Replicase polyprotein 1ab (Severe acute respiratory syndrome coronavirus 2, UniProt P0DTD1)
Experiment: Inhibition of recombinant SARS-CoV-2 Main protease using TAMRA-SITSAVLQSGFRKMK-DABCYL-OH fluorogenic peptide as substrate preincubated or 30 mins followed by substrate addition by FRET assay

SMILES	IC50 [nM]
CC(C)C(=O)N[C@H](C(=O)N1C[C@H]2[C@@H]([C@H]1C(=O)N[C@H](C#N)C[C@@H]1CCNC1=O)C2(C)C)C(C)(C)C	< 100
COc1cccc2[nH]c(C(=O)N3C[C@@H]4CCC[C@@H]4[C@H]3C(=O)N[C@@H](C[C@@H]3CCNC3=O)C(=O)CCl)cc12	100
CC(C)(C)[C@H](NC(=O)Cc1ccccc1)C(=O)N1C[C@H]2[C@@H]([C@H]1C(=O)N[C@H](C#N)C[C@@H]1CCNC1=O)C2(C)C	< 100
COc1cccc2[nH]c(C(=O)N3C[C@@H]4CCC[C@@H]4[C@H]3C(=O)N[C@@H](C[C@@H]3CCNC3=O)C(=O)C(=O)NC3CCCCC3)cc12	< 100
CC(=O)N[C@H](C(=O)N1C[C@H]2[C@@H]([C@H]1C(=O)N[C@H](C#N)C[C@@H]1CCNC1=O)C2(C)C)C(C)(C)C	< 100
COc1cccc2[nH]c(C(=O)N3C[C@@H]4CCC[C@@H]4[C@H]3C(=O)N[C@H](C=O)C[C@@H]3CCNC3=O)cc12	< 100
COc1cccc2[nH]c(C(=O)N3C[C@@H]4CCC[C@@H]4[C@H]3C(=O)N[C@@H](C[C@@H]3CCNC3=O)C(=O)COC(=O)c3c(Cl)cccc3Cl)cc12	< 100
COc1cccc2[nH]c(C(=O)N3C[C@@H]4CCC[C@@H]4[C@H]3C(=O)N[C@@H](C[C@@H]3CCNC3=O)C(=O)CO)cc12	100
CC1(C)[C@@H]2[C@@H](C(=O)N[C@H](C#N)C[C@@H]3CCNC3=O)N(C(=O)c3cc4c(OC(F)F)cccc4[nH]3)C[C@@H]21	100
CCC(=O)N[C@H](C(=O)N1C[C@H]2[C@@H]([C@H]1C(=O)N[C@H](C#N)C[C@@H]1CCNC1=O)C2(C)C)C(C)(C)C	< 100
N#C[C@H](C[C@@H]1CCNC1=O)NC(=O)[C@@H]1CCCN1C(=O)c1cc2c(OC(F)F)cccc2[nH]1	> 1000
CC(C)(C)[C@H](NC(=O)C1CCCCC1)C(=O)N1C[C@H]2[C@@H]([C@H]1C(=O)N[C@H](C#N)C[C@@H]1CCNC1=O)C2(C)C	< 100
CC(C)(C)C(=O)N[C@H](C(=O)N1C[C@H]2[C@@H]([C@H]1C(=O)N[C@H](C#N)C[C@@H]1CCNC1=O)C2(C)C)C(C)(C)C	< 100
